Experimental findings from patent US10336765B2, “Dihydropyranopyrimidinone derivatives, and use thereof” (St Pharm Co., LTD, priority 2015, dated 2019) are described below.

SMILES strings stand for the structures.

For one assay, the target named is T1, tankyrase 1 (Homo sapiens, UniProt O95271).
T1 construct: purchased Trevigen 4700-096-K
T1 sequence (O95271 1-1327): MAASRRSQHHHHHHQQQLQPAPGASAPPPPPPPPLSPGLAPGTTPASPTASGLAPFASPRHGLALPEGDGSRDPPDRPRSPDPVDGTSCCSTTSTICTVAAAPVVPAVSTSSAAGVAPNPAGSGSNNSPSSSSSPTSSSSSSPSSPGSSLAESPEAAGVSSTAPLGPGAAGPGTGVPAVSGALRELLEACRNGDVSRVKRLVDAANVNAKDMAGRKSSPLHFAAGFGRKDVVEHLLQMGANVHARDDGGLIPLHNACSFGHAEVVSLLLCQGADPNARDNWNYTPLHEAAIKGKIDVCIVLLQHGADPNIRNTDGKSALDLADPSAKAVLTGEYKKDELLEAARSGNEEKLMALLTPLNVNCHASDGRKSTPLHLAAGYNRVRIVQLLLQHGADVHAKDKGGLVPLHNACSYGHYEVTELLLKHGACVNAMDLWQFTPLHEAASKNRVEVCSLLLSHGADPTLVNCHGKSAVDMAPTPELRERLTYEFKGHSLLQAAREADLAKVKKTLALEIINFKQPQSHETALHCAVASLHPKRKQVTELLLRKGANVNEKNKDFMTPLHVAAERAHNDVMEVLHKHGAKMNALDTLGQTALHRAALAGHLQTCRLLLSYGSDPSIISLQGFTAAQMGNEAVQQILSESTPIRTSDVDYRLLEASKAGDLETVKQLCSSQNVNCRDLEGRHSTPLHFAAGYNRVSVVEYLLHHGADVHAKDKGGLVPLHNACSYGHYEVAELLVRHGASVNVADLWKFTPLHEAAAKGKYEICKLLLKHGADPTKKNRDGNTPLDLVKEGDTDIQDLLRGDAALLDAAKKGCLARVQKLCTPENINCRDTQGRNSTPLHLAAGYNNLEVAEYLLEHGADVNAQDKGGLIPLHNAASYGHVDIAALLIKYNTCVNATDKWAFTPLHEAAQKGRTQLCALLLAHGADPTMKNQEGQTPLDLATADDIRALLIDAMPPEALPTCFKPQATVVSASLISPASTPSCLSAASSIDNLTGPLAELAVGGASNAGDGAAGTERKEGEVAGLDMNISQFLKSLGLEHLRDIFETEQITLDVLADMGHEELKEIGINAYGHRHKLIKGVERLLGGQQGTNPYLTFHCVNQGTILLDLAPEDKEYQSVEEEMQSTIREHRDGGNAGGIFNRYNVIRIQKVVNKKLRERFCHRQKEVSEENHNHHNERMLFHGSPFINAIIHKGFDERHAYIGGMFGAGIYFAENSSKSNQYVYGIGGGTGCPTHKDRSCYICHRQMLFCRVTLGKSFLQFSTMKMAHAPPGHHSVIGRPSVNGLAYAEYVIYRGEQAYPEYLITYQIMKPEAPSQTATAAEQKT
Put plainly: Analysis of activity of tankyrase 1 (Trevigen kit, ELISA absorbance at 450 nm). It counts as biochemical.
Settings: not given
How it is done:
Activities of novel compounds synthesized according to Examples 1 to 13 against tankyrase 1 were analyzed using a Trevigen kit (Cat. No. 4700-096-K). Poly PAR histone protein-coated 96-well plate, anti-PAR monoclonal antibody and goat anti-mouse IgG-HRP were used for measurement of absorbance by ELISA method. Specifically, 20×I-PAR assay buffer was diluted to 1× by adding water, and 50 μL of the diluted buffer was added to each well of the 96-well plate followed by reacting at rt for 30 min. Then, the supernatant was completely removed from each well and 10 μL of 1×I-PAR assay buffer and 15 μL of assay substrate were added to each well along with 1 μL of a 50× solution of inhibitors to be tested, which were the compounds obtained in the Examples 1 to 13. 10 mUnits/μL of tankyrase 1 enzyme was diluted 50-fold with 1×I-PAR assay buffer and 25 μL of the diluted enzyme was added to each well and reacted while stirring at rt for 30 min. One without any compound of the present invention was used as a positive control and another containing 1×I-PAR assay buffer with the same volume instead of tankyrase 1 enzyme was used as a negative control.
Upon completion of the reaction, 200 μL of PBSX, which was prepared by adding 0.1% triton X-100 to PBS, was added and removed and this washing process was repeated twice. Washing was repeated twice more using PBS in the same manner. 5× antibody diluent was diluted with distilled water to 1× concentration, 50 μL of the diluted goat anti-mouse IgG-HRP to 1/2000 was added to each well and reacted while stirring at rt for 30 min. Washes were carried out twice using PBSX and PBS, respectively. After adding 50 μL of TACS-sapphire to each well of the plate, the plate was blocked from light to react for 10 min to 15 min and the color of the reaction solution turned blue. To stop the reaction, 50 μL of 0.2N HCl was added to turn the solution yellow. Finally, the absorbance of the resulting solution was measured at 450 nm.
In turn, `COCCOc1cc(F)c(N2CCN(c3nc4c(c(=O)[nH]3)COCC4)CC2)c(F)c1` [Example 1, 2-(4-(2,6-difluoro-4-(2-methoxyethoxy)phenyl)piperazin-1-yl)-7,8-dihydro-3H-pyrano[4,3-d]pyrimidin-4(5H)-one] yielded an IC50 of 27.2 nM.

The assay is the same for the next values; noted with them: Trevigen kit Cat. No. 4700-096-K; reacted at rt for 30 min; absorbance at 450 nm; read-out: TNKS1 (IC50).
Consider `O=c1[nH]c(N2CCN(c3c(F)cc(OCCO)cc3F)CC2)nc2c1COCC2` [Example 4, 2-(4-(2,6-difluoro-4-(2-hydroxyethoxy)phenyl)piperazin-1-yl)-7,8-dihydro-3H-pyrano[4,3-d]pyrimidin-4(5H)-one], for which the IC50 was 26.6 nM.

Regarding `COCCOc1cc(F)c(C2CCN(c3nc4c(c(=O)[nH]3)COCC4)CC2)c(F)c1` [Example 11, 2-(4-(2,6-difluoro-4-(2-methoxyethoxy)phenyl)piperidin-1-yl)-7,8-dihydro-3H-pyrano[4,3-d]pyrimidin-4(5H)-one], the IC50 turned out to be 74.4 nM.

For `CN1CCN(Cc2cc(F)c(N3CCN(c4nc5c(c(=O)[nH]4)COCC5)CC3)c(F)c2)CC1` [Example 6, 2-(4-(2,6-difluoro-4-((4-methylpiperazin-1-yl)methyl)phenyl)piperazin-1-yl)-7,8-dihydro-3H-pyrano[4,3-d]pyrimidin-4(5H)-one], the IC50 is 36.8 nM.

In the case of `O=c1[nH]c(N2CCN(c3c(F)cc(OCC(O)CO)cc3F)CC2)nc2c1COCC2` (stereo not shown) [Example 5, 2-(4-(4-(2,3-dihydroxypropoxy)-2,6-difluorophenyl)piperazin-1-yl)-7,8-dihydro-3H-pyrano[4,3-d]pyrimidin-4(5H)-one], the IC50 was 26.1 nM.

With `CCN(CC)CCOc1cc(F)c(N2CCN(c3nc4c(c(=O)[nH]3)COCC4)CC2)c(F)c1` [Example 12, 2-(4-(4-(2-(diethylamino)ethoxy)-2,6-difluorophenyl)piperazin-1-yl)-7,8-dihydro-3H-pyrano[4,3-d]pyrimidin-4(5H)-one], the IC50 amounted to 33.6 nM.

For `O=c1[nH]c(N2CCN(c3c(F)cc(OCCN4CCCCC4)cc3F)CC2)nc2c1COCC2` [Example 3, 2-(4-(2,6-difluoro-4-(2-(piperidin-1-yl)ethoxy)phenyl)piperazin-1-yl)-7,8-dihydro-3H-pyrano[4,3-d]pyrimidin-4(5H)-one], the IC50 turned out to be 40.3 nM.

Turning to `O=C(COc1cc(F)c(N2CCN(c3nc4c(c(=O)[nH]3)COCC4)CC2)c(F)c1)N1CCCCC1` [Example 10, 2-(4-(2,6-difluoro-4-(2-oxo-2-(piperidin-1-yl)ethoxy)phenyl)piperazin-1-yl)-7,8-dihydro-3H-pyrano[4,3-d]pyrimidin-4(5H)-one], the IC50 came out at 34.2 nM.

In the case of `O=c1[nH]c(N2CCN(c3c(F)cc(OCCn4ccnc4)cc3F)CC2)nc2c1COCC2` [Example 13, 2-(4-(4-(2-(1H-imidazol-1-yl)ethoxy)-2,6-difluorophenyl)piperazin-1-yl)-7,8-dihydro-3H-pyrano[4,3-d]pyrimidin-4(5H)-one], the IC50 is 25.4 nM.

As to `COCCOc1cc(F)c(C2(O)CCN(c3nc4c(c(=O)[nH]3)COCC4)CC2)c(F)c1` [Example 8, 2-(4-(2,6-difluoro-4-(2-methoxyethoxy)phenyl)-4-hydroxypiperidin-1-yl)-7,8-dihydro-3H-pyrano[4,3-d]pyrimidin-4(5H)-one], the IC50 worked out at 162 nM.

As for `O=c1[nH]c(N2CCN(c3c(F)cc(OCCN4CCOCC4)cc3F)CC2)nc2c1COCC2` [Example 2, 2-(4-(2,6-difluoro-4-(2-morpholinoethoxy)phenyl)piperazin-1-yl)-7,8-dihydro-3H-pyrano[4,3-d]pyrimidin-4(5H)-one], the IC50 worked out at 40.6 nM.

Take `Cn1nnc(C2CCN(c3nc4c(c(=O)[nH]3)COCC4)CC2)n1` [Example 9, 2-(4-(2-methyl-2H-tetrazol-5-yl)piperidin-1-yl)-7,8-dihydro-3H-pyrano[4,3-d]pyrimidin-4(5H)-one]: the IC50 was found to be 803 nM.

Turning to `CC(O)c1cc(F)c(N2CCN(c3nc4c(c(=O)[nH]3)COCC4)CC2)c(F)c1` (stereo not shown) [Example 7, 2-(4-(2,6-difluoro-4-(1-hydroxyethyl)phenyl)piperazin-1-yl)-7,8-dihydro-3H-pyrano[4,3-d]pyrimidin-4(5H)-one], the 50% inhibitory concentration (IC50) was found to be 21.8 nM.
